According to patent EP4692094A1 (Beijing Konruns Pharmaceutical Co., Ltd., priority 2023, dated 2024):

Test: Assay for plasma protein binding rate (equilibrium dialysis), dog plasma
Assay type: in vitro ADME
Conditions: dialysis 6 h at 37 °C, read-out: Dog (Fu%)
Protocol: 1.1 Preparation of compounds: The compounds prepared in the examples were each dissolved in dimethylsulfoxide to give solutions at a concentration of 10 mmol/L. • 1) The example compounds were each diluted from 10 mmol/L stock solution to 0.2 mmol/L, i.e., 1 µL of the compound was added to 49 µL of DMSO; • 2) 3 µL of 0.2 mmol/L test compounds were added to 597 µL of blood plasma, and the mixtures were vortexed at 1000 rpm for 2 min; • 3) 50 µL of the plasma containing the drug in 2) was taken, 50 µL of PBS was added, and 300 µL of methanol internal standard* was added to serve as a sample T0; • 4) 120 µL of the plasma containing the drug in 2) was taken and added to one side of an HTD device membrane, and 120 µL of PBS was added to the other side of the membrane; a breathable film was covered, and the plasma and the residual sample in 2) were balanced at 37 °C (100 rpm and 5% CO2) for 6 h; • 5) 50 µL of the dialyzed plasma side sample was taken, 50 µL of PBS was added, and 300 µL of methanol internal standard* was added to serve as a sample P; • 6) 50 µL of the dialyzed PBS side sample was taken, 50 µL of blank plasma was added, and 300 µL of methanol internal standard* was added to serve as a sample B; • 7) 50 µL of the plasma containing the drug in 2) was taken, 50 µL of PBS was added, and 300 µL of methanol internal standard* was added to serve as a sample T6; • 8) All samples were vortexed, mixed homogeneously, and then centrifuged at 3220 g for 40 min at 4 °C; • 9) 100 µL of the supernatant and 100 µL of purified water were mixed homogenously for liquid chromatography-mass spectrometry.
An internal standard method was used, and the plasma protein binding rate, recovery rate, and residual percentage were calculated by using Excel according to the ratio of the peak area of the sample to the peak area of the internal standard. Free rate(%) = (RatioB)/(RatioP) × 100% [formula] Binding rate(%) = 100%−Free rate% [formula] Recovery rate(%) = (RatioB + RatioP)/(RatioT0) × 100% [formula] Remaining percentage(%) = (RatioT6)/(RatioT0) × 100% [formula]
RatioB: a ratio of the peak area of the test substance on the PBS side to the peak area of the internal standard; RatioP: a ratio of the peak area of the test substance on the plasma side to the peak area of the internal standard; RatioT6: a ratio of the peak area of the sample after incubation with the test substance for 6 h to the peak area of the internal standard; RatioT0: a ratio of the peak area of the sample after incubation with the test substance for 0 h to the peak area of the internal standard. Table 8. Plasma protein binding rate (Fu%) data for various species of example compounds

| Compound | fraction unbound at 6 h, 1 µM |
| --- | --- |
| COc1ccc2ccoc2c1S(=O)(=O)Nc1noc2cc(Cn3cccn3)nc(OC)c12 [Example 10, N-(6-((1H-Pyrazol-1-yl)methyl)-4-methoxyisoxazolo[4,5-c]pyridin-3-yl)-6-methoxybenzofuran-7-sulfonamide] | 0.0145 |
| COc1cc2c(cc1S(=O)(=O)Nc1noc3cc(Cn4cccn4)nc(OC)c13)CCCC2 [Example 2, N-(6-((1H-Pyrazol-1-yl)methyl)-4-methoxyisoxazolo[4,5-c]pyridin-3-yl)-3-methoxy-5,6,7,8-tetrahydronaphthalene-2-sulfonamide] | 0.0013 |
| COc1ccc2c(c1S(=O)(=O)Nc1noc3cc(Cn4cccn4)nc(OC)c13)OCC2 [Example 9, N-(6-((1H-Pyrazol-1-yl)methyl)-4-methoxyisoxazolo[4,5-c]pyridin-3-yl)-6-methoxy-2,3-dihydrobenzofuran-7-sulfonamide] | 0.025 |
| COc1cc2c(cc1S(=O)(=O)Nc1noc3cc(Cn4cccn4)nc(OC)c13)OCC2 [Example 59, N-(6-((1H-Pyrazol-1-yl)methyl)-4-methoxyisoxazolo[4,5-c]pyridin-3-yl)-5-methoxy-2,3-dihydrobenzofuran-6-sulfonamide] | 0.0143 |
| COc1cc2c(cc1S(=O)(=O)Nc1noc3cc(Cn4cccn4)nc(OC)c13)CCCO2 [Example 76, N-(6-((1H-Pyrazol-1-yl)methyl)-4-methoxyisoxazolo[4,5-c]pyridin-3-yl)-7-methoxy-3,4-dihydro-1H-benzopyran-6-sulfonamide] | 0.0065 |
